Measurements taken from patent US20140314857A1, “FORMULATIONS FOR ENHANCED BIOAVAILABILITY OF ZANAMIVIR” (priority 2012, published 2014).

Experiments:
[1] = Intraduodenal bioavailability of zanamivir from glycerol and PBS formulations, enhancer pre-dose (Example 6); conditions: male, Sprague-Dawley, rat, in vivo, ID 1.5 mg/animal; for concentration at 0.25 hr / concentration at 0.5 hr / concentration at 0.83 hr / concentration at 1 hr / concentration at 1.5 hr / concentration at 2 hr: 1.5 mg/animal, Plasma concentration
Description: Male Sprague-Dawley rats (Hilltop Labs), 3 animals per treatment group, 250-350 grams in weight, were fitted with a jugular vein cannula (JVC). Animals intended for intraduodenal dosing were also fitted with one or more intraduodenal cannula (IDC) and those intended for intravenous dosing were fitted with a second JVC. Food was withheld from the animals for a minimum of twelve hours prior to test article administration and was returned approximately four hours post-dose. Water was supplied ad libitum.
Intraduodenal doses composed of 1.5 mg of zanamivir and varying amounts of an enhancer (glycerol or Capmul MCM L8) were injected directly into the duodenum via the IDC. Intravenous dosing was conducted by the injection of 1.5 mg of zanamivir in 200 μL of PBS through a JVC. For some experiments, the absorption enhancer was administered intraduodenally 2 hr prior to administering 1.5 mg of zanamivir in PBS through a second IDC. Each intraduodenal dose was followed with the introduction of a small air bubble (˜10 μL) in the cannula followed by a flush of 125 μL of PBS to ensure the dose was given in full. The volume of PBS used for cannula flush was consistent across the treatment groups. The cannula was tied to prevent the PBS remaining in the cannula from entering the duodenum.
Blood samples collected via the JVC, approximately 400 μL each, were obtained at 2 min, 5 min, 15 min, 30 min, 60 min, 90 min, and 120 min, with sodium heparin used as an anti-coagulant. Each sample was placed into a chilled tube containing the anticoagulant and kept on ice until centrifugation at 4° C., 3,000×g, for 5 min. The plasma supernatants were stored at −70° C. until LC-MS analysis.
Dosing solution samples were assayed by LC-MS/MS using electrospray ionization. The chromatographic system consisted of Perkin Elmer series 200 micropumps and autosampler equipped with a Waters Atlantic® HILIC Silica 3 μM, 2.1×50 mm column. The mass spectrometer was a PE Sciex API 4000 with electrospray interface in multiple reaction monitoring mode. […] Stock solutions (1 mg/mL zanamivir) were prepared in water. Standards (eight concentrations) were prepared in the appropriate matched matrix (HBSSg or Sprague-Dawley rat plasma containing sodium heparin) and diluted 50-fold with methanol. Experimental samples were treated identically.
Standards and samples were prepared in Sprague Dawley rat plasma containing sodium heparin as an anticoagulant. An eight-point calibration curve was prepared at concentrations of 1000, 750, 500, 250, 100, 50, 25, and 10 ng/mL by serial dilution. Standard samples were treated identically to the study samples.
Plasma samples were extracted by protein precipitation in methanol.
In this example, the bioavailability of Zanamivir was evaluated after intraduodenal doses in male Sprague-Dawley rats. The test compound was dosed at 1.5 mg/animal through intraduodenal routes from glycerol and PBS formulations. Plasma levels were determined by LC-MS/MS analysis. Pharmacokinetic parameters were estimated by a non-compartmental model using WinNonlin v5.2.1 software.

[2] = Express IV formulation development: solubility screening in normal saline; assay type: physicochemical; conditions: saline or isotonic, thermodynamic from solid, NS, visual observation after vortexing
Description: The following procedure and potential dosing vehicles were evaluated, and the results are described. The target concentrations of 5 mg/mL were investigated. 1. Weigh 2-5 mg of the zanamivir into a 4 mL glass vial. 2. Add the appropriate volume of normal saline. 3. Vortex, record observations of the formulation. 4. Take an aliquot and dilute it 5-fold with NS. 5. Record observations of the formulation. 6. End of the procedure.

[3] = 50 µL PBS, 50 µL blank Capmul MCM L8 -2 hr, individual rats
[4] = 50 µL PBS, 50 µL blank Capmul MCM L8 -2 hr, mean
[5] = 50 µL PBS, 150 µL blank glycerol -2 hr, mean
[6] = 50 µL PBS, 150 µL blank glycerol -2 hr, individual rats
[7] = 100 µL Glycerol, individual rats
[8] = 150 µL Glycerol, individual rats

## CC(=O)NC1C(NC(=N)N)C=C(C(=O)O)OC1C(O)C(O)CO (stereo not drawn) [Zanamivir, 5-acetamido-4-guanidino-6-(1,2,3-trihydroxypropyl)-5,6-dihydro-4H-pyran-2-carboxylic acid]
[1]; 1.5 mg, tmax, 100 µL Glycerol, mean
  Tmax: 43.2 min
[1]; [3]
  concentration at 0.25 hr: 0.0333 µg/mL
  concentration at 0.5 hr: 0.038 µg/mL
  concentration at 1 hr: 0.033 µg/mL
[1]; [4]
  concentration at 0.25 hr: 0.0295 µg/mL
  concentration at 0.5 hr: 0.0385 µg/mL
  concentration at 0.83 hr: 0.0108 µg/mL
  concentration at 1 hr: 0.0327 µg/mL
  concentration at 1.5 hr: 0.0387 µg/mL
  concentration at 2 hr: 0.0338 µg/mL
[1]; [5]
  concentration at 0.25 hr: 0.0518 µg/mL
  concentration at 0.5 hr: 0.0542 µg/mL
  concentration at 0.83 hr: 0.0244 µg/mL
  concentration at 1 hr: 0.0382 µg/mL
  concentration at 1.5 hr: 0.0401 µg/mL
  concentration at 2 hr: 0.0541 µg/mL
[1]; [6]
  concentration at 0.5 hr: 0.0502 µg/mL
  concentration at 1 hr: 0.0364 µg/mL
  concentration at 1.5 hr: 0.0401 µg/mL
[1]; 50 µL PBS, 150 µL blank glycerol -2 hr, individual rats, BLOQ = below 10 ng/mL
  concentration at 2 hr: 0.0534 µg/mL
[1]; [7]
  concentration at 0.25 hr: 0.052 µg/mL
  concentration at 0.5 hr: 0.0514 µg/mL
  concentration at 1 hr: 0.0385 µg/mL
[1]; 100 µL Glycerol, mean
  concentration at 0.25 hr: 0.0564 µg/mL
  concentration at 0.5 hr: 0.0487 µg/mL
  concentration at 0.83 hr: 0.0571 µg/mL
  concentration at 1 hr: 0.0444 µg/mL
  concentration at 1.5 hr: 0.0469 µg/mL
  concentration at 2 hr: 0.0542 µg/mL
[1]; [8]
  concentration at 0.25 hr: 0.109 µg/mL
  concentration at 0.83 hr: 0.139 µg/mL
  concentration at 1 hr: 0.0525 µg/mL
[1]; 150 µL Glycerol, mean
  concentration at 0.25 hr: 0.0877 µg/mL
  concentration at 0.5 hr: 0.0692 µg/mL
  concentration at 0.83 hr: 0.107 µg/mL
  concentration at 1 hr: 0.0499 µg/mL
  concentration at 1.5 hr: 0.0366 µg/mL
  concentration at 2 hr: 0.0293 µg/mL
[2]
  solubility: ≥ 5 mg/mL
